From US5026848A, “Novel generation of heteroaryloxyalkyl heterocycles with antipicornaviruses activities” (Synphar Laboratories Incorporated, priority 1988, dated 1991)
In brackets after ≈: the same amount, converted by molar mass.

Columns and labels:
HRV-1A and HRV-39 = assay: Anti-rhinovirus activity against HRV-1A and HRV-39; conditions: in words
WI38 cells = assay: Toxicity to WI38 cells (change in morphology in / growth inhibition of 25% of the cells); assay type: cell-based
Rhinovirus 1A = assay: Anti-rhinovirus activity, cytopathic effect inhibition / neutral red dye uptake, type 1A; assay type: cell-based; conditions: Table I, WI38 cells, 33° C., 3-4 days, NA = Not active; for EC50: Enterovirus, WI-38, read-out: MIC50 Rhinovirus 1A
Rhinovirus 39 = assay: Anti-rhinovirus activity, cytopathic effect inhibition / neutral red dye uptake, type 39; assay type: cell-based; conditions: Table I, WI38 cells, 33° C., 3-4 days; for EC50: Enterovirus, WI-38, read-out: MIC50 Rhinovirus 39
Rhinovirus 1B = assay: Anti-rhinovirus activity, cytopathic effect inhibition / neutral red dye uptake, type 1B; assay type: cell-based; conditions: Enterovirus, WI-38; Table II; one of seven commonest serotypes; read-out: MIC 50 Rhinovirus Type 1B
Rhinovirus 4 = assay: Anti-rhinovirus activity, cytopathic effect inhibition / neutral red dye uptake, type 4; assay type: cell-based; conditions: Enterovirus, WI-38; Table II; one of seven commonest serotypes; read-out: MIC 50 Rhinovirus Type 4
Rhinovirus 15 = assay: Anti-rhinovirus activity, cytopathic effect inhibition / neutral red dye uptake, type 15; assay type: cell-based; conditions: Enterovirus, WI-38; Table II; one of seven commonest serotypes; read-out: MIC 50 Rhinovirus Type 15
Rhinovirus 17 = assay: Anti-rhinovirus activity, cytopathic effect inhibition / neutral red dye uptake, type 17; assay type: cell-based; conditions: Enterovirus, WI-38; Table II; read-out: MIC 50 Rhinovirus Type 17
Rhinovirus 29 = assay: Anti-rhinovirus activity, cytopathic effect inhibition / neutral red dye uptake, type 29; assay type: cell-based; conditions: Enterovirus, WI-38; Table II; one of seven commonest serotypes; read-out: MIC 50 Rhinovirus Type 29
Rhinovirus 31 = assay: Anti-rhinovirus activity, cytopathic effect inhibition / neutral red dye uptake, type 31; assay type: cell-based; conditions: Enterovirus, WI-38; Table II; one of seven commonest serotypes; read-out: MIC 50 Rhinovirus Type 31
Rhinovirus 36 = assay: Anti-rhinovirus activity, cytopathic effect inhibition / neutral red dye uptake, type 36; assay type: cell-based; conditions: Enterovirus, WI-38; Table II; read-out: MIC 50 Rhinovirus Type 36
Rhinovirus 86 = assay: Anti-rhinovirus activity, cytopathic effect inhibition / neutral red dye uptake, type 86; assay type: cell-based; conditions: Enterovirus, WI-38; Table II; read-out: MIC 50 Rhinovirus Type 86
Polio 1 = assay: microbe, parasite or virus in culture; assay type: cell-based; conditions: Enterovirus, read-out: MIC 50 Polio 1
Coxsacki-A21 = assay: Activity against other picornaviruses, Coxsacki-A21; assay type: cell-based; conditions: Enterovirus, read-out: MIC 50 Cox. A21
Coxsacki-B1 = assay: Activity against other picornaviruses, Coxsacki-B1; assay type: cell-based; conditions: Enterovirus, read-out: MIC 50 Cox. B1
Echo-7 = assay: Activity against other picornaviruses, Echo-7; assay type: cell-based; conditions: Enterovirus, read-out: MIC 50 Echo 7
Echo-11 = assay: Activity against other picornaviruses, Echo-11; assay type: cell-based; conditions: Enterovirus, read-out: MIC 50 Echo 11
Enterovirus serotypes = assay type: cell-based; conditions: Table III; numerator; denominator 7, but 5 for compound 8
[1] = test system: 20 serotypes of rhinovirus; assay: Anti-rhinovirus activity against a panel of 20 serotypes; conditions: Table II; numerator; denominator 20, but 10 for compound 8 and 6 for compound 30
[2] = Table I, concentration with change in morphology in 25% of WI38 cells

| Compound | inhibitory activity against HRV-1A and HRV-39 in vitro (HRV-1A and HRV-39) | Toxicity (WI38 cells; [2]) | EC50 (Rhinovirus 1A) | EC50 (Rhinovirus 39) | other results |
| --- | --- | --- | --- | --- | --- |
| Cc1cnsc1CCCCCCOc1cccc2ccccc12 | remarkably inhibitory activity |  |  |  |  |
| 5-[7-(2-Naphthyl)oxyheptyl]-3-methylthiazole [Compound 18] |  | > 50 µg/mL |  |  | MIC50 Rhinovirus 1A (Rhinovirus 1A): 25 µg/mL; MIC50 Rhinovirus 39 (Rhinovirus 39): 25 µg/mL |
| 5-[7-(fluoren-9-yl)oxyheptyl]-3-methylthiazole | remarkably inhibitory activity |  |  |  |  |
| Cc1cc(CCCCCCCOc2ccc(-n3cncn3)cc2)on1 [Compound 3, 5-{7-[4-(1,2,4-triazol-1-yl)phenoxy]heptyl}-3-methylisoxazole] | remarkably inhibitory activity | 750 µg/mL | 50 µg/mL (≈ 147 µM) | 50 µg/mL (≈ 147 µM) |  |
| Cc1cc(CCCCCCCON2C(=O)COc3c2ccc2ccccc32)on1 [Compound 6, 5-[7-(2,3-dihydro-3-oxo-4H-napth[1,2-b]-1,4-oxazin-4-yl)oxyheptyl]-3-methylisoxazole] | remarkably inhibitory activity | > 50 µg/mL | 50 µg/mL (≈ 127 µM) | 50 µg/mL (≈ 127 µM) |  |
| Cc1cc(CCCCCCCOc2ccc3c(c2)[nH]c2ccccc23)on1 [Compound 8, 5-[7-(carbazol-2-yl)oxyheptyl]-3-methylisoxazole] | remarkably inhibitory activity | 25 µg/mL | 10 µg/mL (≈ 27.6 µM) | 10 µg/mL (≈ 27.6 µM) | Toxicity (WI38 cells; Table II): 25 µg/mL; Toxicity (WI38 cells; Table III): 25 µg/mL; IC50 (Rhinovirus 1B): 5 µg/mL (≈ 13.8 µM); IC50 (Rhinovirus 4): > 25 µg/mL; IC50 (Rhinovirus 15): > 25 µg/mL; IC50 (Rhinovirus 17): > 25 µg/mL; IC50 (Rhinovirus 29): > 25 µg/mL; EC50 (Rhinovirus 31): 1 µg/mL (≈ 2.76 µM); EC50 (Rhinovirus 36): > 25 µg/mL; EC50 (Rhinovirus 86): > 25 µg/mL; EC50 (Polio 1): > 25 µg/mL; IC50 (Coxsacki-A21): > 25 µg/mL; IC50 (Coxsacki-B1): > 25 µg/mL; IC50 (Echo-7): > 25 µg/mL; IC50 (Echo-11): > 25 µg/mL; All Enterovirus Serotypes (number of serotypes active / tested) (Enterovirus serotypes): 0; All Rhinovirus Serotypes (number of serotypes active / tested) [1]: 4 |
| Cc1cc(CCCCCCCOc2cc(C)c3ccccc3n2)on1 [Compound 10, 5-[7-(4-methylquinolin-2-yl)oxyheptyl]-3-methylisoxazole] |  | 50 µg/mL | 25 µg/mL (≈ 73.9 µM) | 25 µg/mL (≈ 73.9 µM) |  |
| Cc1cc(CCCCCCCOc2nc3ccccc3[nH]2)on1 [Compound 11, 5-[7-(benzimidazol-2-yl)oxyheptyl]-3-methylisoxazole] |  | 50 µg/mL | 25 µg/mL (≈ 79.8 µM) | 10 µg/mL (≈ 31.9 µM) |  |
| Cc1cc(CCCCCCCOC23CC4CC(CC(C4)C2)C3)on1 [Compound 12, 5-[7-(Adamantanol-1-yl)oxyheptyl]-3-methylisoxazole] |  | 50 µg/mL | 25 µg/mL (≈ 75.4 µM) | 10 µg/mL (≈ 30.2 µM) |  |
| Cc1cc(CCCCCCCOc2ccc3ccccc3c2)on1 [Compound 13, 5-[7-(2-naphthyl)oxyheptyl]-3-methylisoxazole] | remarkably inhibitory activity | 50 µg/mL | 25 µg/mL (≈ 77.3 µM) | 10 µg/mL (≈ 30.9 µM) |  |
| Cc1cc(CCCCCCCOc2cccc3ccccc23)on1 [Compound 14, 5-[7-(1-naphthyl)oxyheptyl]-3-methylisoxazole] | remarkably inhibitory activity | > 50 µg/mL | 25 µg/mL (≈ 77.3 µM) | 25 µg/mL (≈ 77.3 µM) |  |
| Cc1csc(CCCCCCCOc2cc(C)nc3ccccc23)n1 [Compound 16] | remarkably inhibitory activity | 25 µg/mL |  | 5 µg/mL (≈ 14.1 µM) |  |
| Cc1cc(OCCCCCCc2sncc2C)c2ccccc2n1 [Compound 20, 5-[6-(2-methylquinolin-4-yl)oxyhexyl]-4-methylisothiazole] | remarkably inhibitory activity |  |  |  |  |
| Cc1cnsc1CCCCCCOc1ccc2ccccc2c1 [Compound 21, 5-[6-(2-napthyl)oxyhexyl]-4-methylisothiazole] |  | 50 µg/mL | 25 µg/mL (≈ 76.8 µM) | 10 µg/mL (≈ 30.7 µM) |  |
| Cc1cnsc1CCCCCCOc1cccc2ccccc12 [Compound 22, 5-[6-(1-napthyl)oxyhexyl]-4-methylisothiazole] |  | > 50 µg/mL | 25 µg/mL (≈ 76.8 µM) | 25 µg/mL (≈ 76.8 µM) |  |
| Cc1cc(OCCCCCCc2ccns2)c2ccccc2n1 [Compound 26, 5-[6-(2-methylquinoline-4-yl)oxyhexyl]isothiazole] | remarkably inhibitory activity |  |  |  |  |
| Cc1cc(CCCCCCCOC2c3ccccc3-c3ccccc32)on1 [Compound 29, 5-[7-(fluorene-9-yloxy)-heptyl]-3-methylisoxazole] |  | > 50 µg/mL |  | 25 µg/mL (≈ 69.2 µM) |  |
| c1ccc(-n2nccc2CCCCCCOc2ccc3oc4ccccc4c3c2)cc1 [Compound 30] | remarkably inhibitory activity | > 50 µg/mL | 10 µg/mL (≈ 24.4 µM) | 5 µg/mL (≈ 12.2 µM) | Toxicity (WI38 cells; Table II): > 50 µg/mL; IC50 (Rhinovirus 1B): 10 µg/mL (≈ 24.4 µM); IC50 (Rhinovirus 4): 10 µg/mL (≈ 24.4 µM); IC50 (Rhinovirus 15): 5 µg/mL (≈ 12.2 µM); EC50 (Rhinovirus 31): > 25 µg/mL; All Rhinovirus Serotypes (number of serotypes active / tested) [1]: 5 |
| Cc1cc(OCCCCCCc2ccnn2-c2ccccc2)c2ccccc2n1 [Compound 31, 5-[6-(2-methylquinolin-4-yl)oxyhexyl]-1-phenylpyrazole] | remarkably inhibitory activity | 25 µg/mL | 10 µg/mL (≈ 25.9 µM) | 10 µg/mL (≈ 25.9 µM) |  |
| c1ccc(-n2nccc2CCCCCCOc2ccc3ccccc3c2)cc1 [Compound 32, 5-[6-(2-naphthyl)-oxyhexyl]-1-phenylpyrazole] | remarkably inhibitory activity | 50 µg/mL | 25 µg/mL (≈ 67.5 µM) | 25 µg/mL (≈ 67.5 µM) |  |
| c1ccc(-n2nccc2CCCCCCOc2cccc3ccccc23)cc1 [Compound 33, 5-[6-(1-naphthyl)oxyhexyl]-1-phenylpyrazole] | remarkably inhibitory activity |  |  |  |  |
| Cc1cc(OCCCCCCc2c(Cl)cnn2-c2ccccc2)c2ccccc2n1 [Compound 35, 4-chloro-5-[6-(2-methylqinolin-4-yl)oxyhexyl]phenylpyrazole] | remarkably inhibitory activity |  |  |  |  |
